The record followed here is patent US20080268123A1, “Onion Flavoured Compounds and Use” (GIVAUDAN SA, priority 2005, published 2008).

Entries after “also recorded” stand apart in the source; their conditions may differ.

Assay [1] can be described thus: Sensory effects of compounds of formula I in chicken broth (triangle test, trained panel). The following applies: for kokumi intensity (0-5): broth without additives = 2. The procedure: (§1) Unless otherwise indicated, all sensory tests are triangle tests and are performed according to the guidelines in “Amtliche Sammlung von Untersuchungsverfahren nach § 35 LMBG (Lebensmittel-und Bedarfsgegenständegesetz)”; L 00.90 7 , Untersuchung von Lebensmitteln , Sensorische Prüfverfahren, Dreiecksprüfung (Übernahme der gleichnahmigen Deutschen Norm DIN ISO 4120, Ausgabe Januar 1995), as follows:
(§2) The sensory panel is trained to evaluate the taste of aqueous solutions (4 ml each) of the following standard taste compounds by using a triangle test as described in the literature (Wieser and Belitz, Z. Lebensm. Unters. Forsch., 1975, 159, 65-72): sucrose (40 mmol/L) for sweet taste; citric acid (5 mmol/L) for sour taste; NaCl (12 mmol/L) for salty taste; caffeine (2 mmol/L) for bitter taste; and monosodium glutamate (MSG; 6 mmol/L) for umami taste. For kokumi taste, a solution of glutathione (10 mmol/L) in diluted chicken broth concentrate (Gourmet Bouillon Huhn, Maggi, Singen, Germany; 3 g/100 g bottled water (Evian®)) is prepared and compared to the taste of chicken broth with no glutathione added. All sensory analyses are performed in a sensory panel room at 22-25° C. over three different sessions by a trained panel of 8 to 10 individuals.
(§3) For recording the taste profiles, samples are prepared as indicated in the examples below. Taste profiles of samples are determined in a triangle test in three different sessions. Panellists refrain from eating or drinking for at least 1 hour prior to the session. At the start of the session and before each trial, the subject rinsed with water and expectorated. The participants receive a set of two blanks and one taste sample. Liquid samples are swirled around in the mouth briefly and expectorated. Solid samples are chewed for 20 seconds and then expectorated. […] Each sample with additive is compared to two reference samples without additives.
Sensory tests (triangle test) are performed at least three times for each compound using sensory panels of different individuals to confirm results.
Chicken Broth is prepared by dilution of 3 g chicken broth concentrate (Gourmet Bouillon Huhn; Maggi, Singen, Germany) with 100 ml water (Evian). Additives are added as specified in table below.
The pH-value of all samples is adjusted to 6.5 using formic acid (0.1 mol/L) or sodium hydroxide (0.1 mol/L).
Flavour intensity (onion or kokumi) is rated from 0-5 according to a scale from 0 to 5 (with 5 most intensive). GSH (5 mmol/L) is determined to have an kokumi intensity of 3 in all tests.
The additive is added to a consumable and the sample is homogenised. The samples are presented to the sensory panel directly after homogenisation.
For each sample, flavour intensity is rated and panelists are asked to describe sensory characteristics.

Assay [2] can be described thus: Sensory effects of compounds of formula I in water (triangle test, trained panel). The following applies: additive 5 mmol/L. The procedure: as §1, §2, §3
Assay [3] in a line: Onion flavour compounds in barbecue sauce (sensory panel). The conditions noted are these: barbecue sauce pH 3.3, additive 5 mmol/L. The procedure:
as §1, §3
Onion flavour compounds as indicated in the table below are added to barbecue sauce (Kraft Foods, Germany), pH 3.3.

Assay [4] in a line: Onion flavour compounds in mushroom cream soup (sensory panel). The following applies: mushroom cream soup pH 6.0, additive 1 mmol/L. The procedure:
as §1, §3
Cys-O—C2H5and γ-Glu-Cys-O—C2H5are added to mushroom cream soup (Unox, Unilever Bestfoods, Germany), pH 6.0 in a concentration of 1 mmol/L samples are evaluated directly after homogenisation.

Assay [5] can be described thus: Onion flavour compounds in tomato soup (sensory panel). The procedure: as §1, §3
Cys-O—C2H5 and γ-Glu-Cys-O—C2H5 are added to tomato soup (Unox, Unilever Bestfoods, Germany, pH 4,5), in the concentrations indicated below.

The mark [6] stands for this setting: chicken broth pH 6.5, additive 5 mmol/L.
Setting [7] is: chicken broth pH 6.5, additive 5 mmol/L, scale 0 to 5 (5 most intensive).
[8] abbreviates: chicken broth pH 6.5, additive 5 mmol/L, scale 0 to 5.
Where [9] appears, read: tomato soup pH 4,5, additive 1 mmol/L.
The mark [10] stands for this setting: tomato soup pH 4,5, additive 5 mmol/L.
Setting [11] is: chicken broth pH 6.5, additive 10 mmol/L (positive control).
Where [12] appears, read: chicken broth pH 6.5, additive 30 mmol/L (positive control).

With `N[C@@H](CS)C(=O)O` [Cys-OH, reference compound], the Sensory descriptors entry in assay [1] (setting [6]) is “increased sweetness”. Moreover, the “onion flavour intensity (0-5)” value in assay [1] (setting [7]) was 0. For the same compound, in assay [1] (setting [8]), the “kokumi intensity (0-5)” value is 2. Besides, in assay [2], the Onion flavour intensity came to 0 and the Sensory description entry is “sweet”.

Regarding `CCOC(=O)[C@@H](N)CS` [Cys-O—C2H5], the “Test results (sensory description versus reference)” value in assay [3] is “Preferred, onion like flavour, meaty”; in assay [4], “Preferred, onion like flavour”; in assay [5] (setting [9]) it was “onion like and slightly meaty flavour; also recorded: Preferred, onion like flavour, slightly meaty”; in assay [5] (setting [10]), “onion like and slightly meaty flavour”. Besides, the Sensory descriptors entry in assay [1] (setting [6]) is “onion flavour”. Moreover, in assay [1] (setting [7]), the “onion flavour intensity (0-5)” value stood at 3. The “kokumi intensity (0-5)” value in assay [1] (setting [8]) was 2. Moreover, the “panelists indicating an onion like flavour” value in assay [4] is listed as 7 out of 8. Moreover, the Onion flavour intensity in assay [2] was found to be 3.5. Besides, the Sensory description entry in assay [2] is given as “onion flavour”.

Turning to `COC(=O)[C@@H](N)CS` [Cys-O—CH3], the Sensory descriptors entry in assay [1] (setting [6]) is given as “onion flavour”. Also, the “onion flavour intensity (0-5)” value in assay [1] (setting [7]) was 2. The “kokumi intensity (0-5)” value in assay [1] (setting [8]) came out at 2. For the same compound, in assay [2], the Onion flavour intensity came out at 2.5 and the Sensory description result is on record as “onion flavour”.

As to `N[C@@H](CCC(=O)N[C@@H](CS)C(=O)NCC(=O)O)C(=O)O` [GSH, reduced form, glutathione, reference compound], in assay [1] (setting [6]), the Sensory descriptors entry is recorded as “increased kokumi taste”. Besides, in assay [1] (setting [7]), the “onion flavour intensity (0-5)” value stood at 0. Besides, in assay [1] (setting [8]), the “kokumi intensity (0-5)” value was determined as 3.

As for `N[C@@H](CCC(=O)O)C(=O)[O-].[Na+]` [MSG, mono sodium glutamate, reference compound], in assay [1] (setting [11]), the Sensory descriptors entry is recorded as “increased umami taste”, the “onion flavour intensity (0-5)” value is on record as 0 and the “kokumi intensity (0-5)” value worked out at 2.

In the case of `CSCC[C@H](N)C(=O)O` [Met-OH], in assay [2], the Onion flavour intensity is reported as 0 and the Sensory description result is given as “sweet”.

With `CCOC(=O)[C@@H](N)CCSC` [Met-O—C2H5], the Sensory descriptors result in assay [1] (setting [6]) is “slight onion flavour”. Besides, the “onion flavour intensity (0-5)” value in assay [1] (setting [7]) is 1.5. Besides, the “kokumi intensity (0-5)” value in assay [1] (setting [8]) is given as 2. Also, in assay [2], the Onion flavour intensity was determined as 1.5 and the Sensory description entry is “slight onion flavour”.

With `COC(=O)[C@@H](N)CCSC` [Met-O—CH3], the Sensory descriptors result in assay [1] (setting [6]) is given as “slight onion flavour”. In assay [1] (setting [7]), the “onion flavour intensity (0-5)” value came to 0.5. The “kokumi intensity (0-5)” value in assay [1] (setting [8]) is recorded as 2. For the same compound, in assay [2], the Onion flavour intensity is given as 1 and the Sensory description entry is listed as “slight onion flavour”.

With `[Cl-].[Na+]` [NaCl, reference compound], in assay [1] (setting [12]), the Sensory descriptors result is “increased salt taste”, the “onion flavour intensity (0-5)” value was 0 and the “kokumi intensity (0-5)” value is listed as 2.

`CCOC(=O)[C@@H](N)CO` [Ser-O—C2H5]: in assay [2], the Onion flavour intensity was 0 and the Sensory description result is on record as “slightly sweet”.

Regarding `COC(=O)[C@@H](N)CO` [Ser-O—CH3], in assay [2], the Onion flavour intensity came out at 0 and the Sensory description entry is listed as “slightly sweet”.

As to `CCOC(=O)CNC(=O)[C@H](CS)NC(=O)CC[C@H](N)C(=O)O` [γ-Glu-Cys-Gly-O—C2H5], in assay [2], the Onion flavour intensity worked out at 0 and the Sensory description result is recorded as “intensely bitter”.

As for `N[C@@H](CCC(=O)N[C@@H](CS)C(=O)O)C(=O)O` [γ-Glu-Cys-OH, reference compound], in assay [1] (setting [6]), the Sensory descriptors result was “increased kokumi taste”. Moreover, the “onion flavour intensity (0-5)” value in assay [1] (setting [7]) worked out at 0. For the same compound, the “kokumi intensity (0-5)” value in assay [1] (setting [8]) is 4. In addition, in assay [2], the Onion flavour intensity was found to be 0 and the Sensory description entry is “tasteless”.

Turning to `CCOC(=O)[C@H](CS)NC(=O)CC[C@H](N)C(=O)O` [γ-Glu-Cys-O—C2H5], the “Test results (sensory description versus reference)” value is reported as “more roasty; also recorded: kokumi taste; also recorded: Preferred, strong onion like flavour, meaty,” in assay [3]; “the observed effect is higher; also recorded: Preferred, strong onion like flavour, meaty,” in assay [4]; “more roasty; also recorded: Preferred, onion like flavour, meaty, roasty, slightly” in assay [5] (setting [9]); “Preferred, strong onion like flavour, meaty, roasty, more” in assay [5] (setting [10]). Besides, the Sensory descriptors entry in assay [1] (setting [6]) is on record as “strong onion flavour, increased”. Further, the “onion flavour intensity (0-5)” value in assay [1] (setting [7]) is 4. In assay [1] (setting [8]), the “kokumi intensity (0-5)” value is listed as 3.5. For the same compound, the “Panel description in text (difference, preference, kokumi taste)” value in assay [5] (tomato soup pH 4,5, samples with 1 mmol/L and 5 mmol/L taken together) is recorded as “kokumi taste”. The Onion flavour intensity in assay [2] is recorded as 4.5. Moreover, the Sensory description entry in assay [2] is listed as “onion flavour”.

Take γ-Glu-Cys(S—C2H5)-Gly-O—C2H5: in assay [2], the Onion flavour intensity is 0 and the Sensory description result is “intensely bitter”.
